Key:
[1] = target: bromodomain of SMARCA2 protein (Homo sapiens (Human), UniProt P40337+P51531); assay: SMARCA2 bromodomain ternary binding TR-FRET assay (with VCB); conditions: with saturating VCB (5 μM); read-out: IC50 (SM 2_T) ternary binding potency in SMARCA2 FRET assay
Description: Recombinant bromodomain of SMARCA2 protein was purchased from Active Motif (Catalog #: 31449). VHL/ElonginB/ElonginC (VCB)N-terminal his6-tagged VHL (“his6” disclosed as SEQ ID NO: 4) (uniprot accession number P40337; M54-D213; […] […] […] (SEQ ID NO: 1)), Elongin B (Q15370; M1-K104; […] […] (SEQ ID NO: 2)), Elongin C (Q15369; M17-C112; […] […] (SEQ ID NO: 3)) complex were co-expressed and the complex was purified by Ni-affinity, TEV protease was then used to remove his6-tagged (SEQ ID NO: 4), and the complex was further purified by size-exclusion chromatography before use.
The inhibitory activity of compounds was evaluated in vitro using TR-FRET assay with white 384-well low volume microplate (PerkinElmer ProxiPlate Plus), in which the compound competes the same binding site with the ligand, and thus lead to dose-dependent TR-FRET signal reduction. The cooperativity of the compounds for ternary complex formation with E3 ligase was evaluated in the absence or presence of saturating concentrations of VCB. Testing compounds were dissolved in DMSO at […] and tested in 9-dose IC50. The assay mixture was prepared by mixing SMARCA2 (10 nM final), biotinylated probe (25 nM final), and assay buffer or VCB (5 μM) in 1×AlphaLISA Epigenetics Buffer (PerkinElmer AL008F) with 1 mM TCEP. The compounds in DMSO were added to each well in 3-fold serial dilution by dispenser (TECAN D300E) and incubate for 20 minutes at room temperature before addition of detection reagents, Lance Eu W1024 anti-6×His (0.6 nM final, PerkinElmer AD0110) and Streptavidin Surelight APC (6 nM final, PerkinElmer CR130-100). The plate was then sealed and further incubated at 4° C. overnight in dark, and then was read by Envision multimode plate reader (PerkinElmer, 2102-0010). The ratio of florescence signal at 665/620 was used in data analysis. Percentage inhibition was calculated by % inhibition=100×(FDMSO-F)/(FDMSO-FPC), in which FDMSO is DMSO control, and FPC is positive control. IC50 values were determined from dose response curve by fitting the percent inhibition against compound concentration using GraphPad Prism software.

SMARCA2 [2] = target: T1, SMARCA2 (Homo sapiens (Human), UniProt P51531); assay: In Cell Western SMARCA2 degradation in NCIH520 cells; format: cell-based; conditions: for DC50: H520 cells, overnight, read-out: DC50 (SM2_H520) SMARCA2 degradation potency; for Dmax: NCI-H520, overnight, read-out: Dmax % (SM2_H520) maximum SMARCA2 degradation within the concentrations tested
Method: (§1) Compound titration and cell culture: Compounds were dissolved in DMSO to make 10 mM stock and 3-fold series dilutions were further conducted keeping the highest concentration 10 μM. NCIH1693 and NCIH520 cells were maintained in PRMI 1640 medium (Corning Cellgro, Catalog #:10-040-CV) supplemented with 10% v/v FBS (GE Healthcare, Catalog #: SH30910.03) by splitting 1:3 twice a week.
(§2) To determine SMACRA2 and SMARCA4 protein degradation DC50 values in NCIH1693 and NCIH520 cells by In Cell Western (ICW) analysis. Cells were trypsinized and 30 thousand cells/well were seeded into 384-well plates and were allowed to grow for 5 hours at 37° C. Eight-point, 3-fold serial dilutions of compounds from 10 mM stocks were added to the cells (using digital Dispenser D300-Tecan, keeping highest concentration 10 μM and normalizing with DMSO at the highest dispensed volume). Plates were incubated at 37° C. for overnight (maximum 18 hours). Cells incubated with DMSO was used as a vehicle control.
(§3) To perform In Cell Western, medium was removed from all the wells leaving cells attached to the surface. After removing the medium, cells were fixed within the plates with 40 μL of 4% formaldehyde by incubating at room temperature for 30 minutes, and then permeabilized with wash buffer (1×PBS with 0.1% Triton X-100) by washing the plate 5 times with 50 μL/well. Before labeling with primary antibodies, cells were blocked with 30 μL/well of blocking buffer (Licor Odyssey blocking buffer PBS #927-40000) for 30 minutes at room temperature. To measure SMARCA2 or SMARCA4 proteins, cells were labeled with 20 μL/well of anti SMARCA2 or SMACRA4 antibodies (Cell Signaling BRM #11966S 1:1000, Cell Signaling BRG #49360S 1:1000) diluted in Li-Cor Odyssey blocking buffer-PBS #927-40000, followed by overnight incubation at 4° C.
(§4) The next day, plates were washed 5×5 minutes with 50 μL/well of washing buffer to remove all the excess primary antibody and then 20 μL from a mixture of secondary antibody and fluorescent DNA specific dye (Goat anti rabbit 1:500 IRDye-800CW #92632211, and DRAQ5™ 1:2000-#ab108410) was added to each well. Plates were incubated for 1 hour at room temperature with gentle rocking. Cells were washed 5 times with 50 μL/well wash buffer, followed by one last wash with DI water, followed by 10 mins drying at 37° C. oven before scanning. Plates were scanned using Li-Cor Odyssey CLx imaging system to acquire integrated intensities at 700 nm and 800 nm. SMARCA signals were normalized to total cell count and then these normalized values were used to calculate the percent degradation relative to DMSO control and maximum inhibition. DC50s were calculated by using the GraphPad Prism4 program based on sigmoidal dose response equation ([Inhibitor] vs. normalized response−Variable slope).

SMARCA4 [3] = target: T2, SMARCA4 (Homo sapiens (Human), UniProt P51532); assay: In Cell Western SMARCA4 degradation in NCIH520 cells; format: cell-based; conditions: for DC50: H520 cells, overnight, read-out: DC50 (SM4_H520) SMARCA4 degradation potency; for Dmax: NCI-H520, overnight, read-out: Dmax % (SM4_H520) maximum SMARCA4 degradation within the concentrations tested
Method: as §1, §2, §3, §4

SMARCA2 [4] = target: T1, SMARCA2; assay: SMARCA2 HiBiT degradation assay in HeLa cells; format: cell-based; conditions: 18 hours; for DC50: read-out: DC50 (SM2-HeLa) SMARCA2 degradation potency; for Dmax: read-out: Dmax % (SM2-HeLa) maximum SMARCA2 degradation within the concentrations tested
In short: (§5)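 HeLa monoclonal lines carrying a heterozygous HiBiT knock-in on SMARCA2 or SMARCA4 were seeded at 2500 cells/well in EMEM with 10% FBS. After 18 h compound exposure at 37 °C, Nano-Glo HiBiT lytic detection ran 30-60 min at RT before the luminescence read. Values are from curve fits.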

SMARCA4 [5] = target: T2, SMARCA4; assay: SMARCA4 HiBiT degradation assay in HeLa cells; format: cell-based; conditions: 18 hours; for DC50: read-out: DC50 (SM4-HeLa) SMARCA4 degradation potency; for Dmax: HeLa, read-out: Dmax % (SM4-HeLa) maximum SMARCA4 degradation within the concentrations tested
In short: as §5

T2 sequence (P51532 whole entry): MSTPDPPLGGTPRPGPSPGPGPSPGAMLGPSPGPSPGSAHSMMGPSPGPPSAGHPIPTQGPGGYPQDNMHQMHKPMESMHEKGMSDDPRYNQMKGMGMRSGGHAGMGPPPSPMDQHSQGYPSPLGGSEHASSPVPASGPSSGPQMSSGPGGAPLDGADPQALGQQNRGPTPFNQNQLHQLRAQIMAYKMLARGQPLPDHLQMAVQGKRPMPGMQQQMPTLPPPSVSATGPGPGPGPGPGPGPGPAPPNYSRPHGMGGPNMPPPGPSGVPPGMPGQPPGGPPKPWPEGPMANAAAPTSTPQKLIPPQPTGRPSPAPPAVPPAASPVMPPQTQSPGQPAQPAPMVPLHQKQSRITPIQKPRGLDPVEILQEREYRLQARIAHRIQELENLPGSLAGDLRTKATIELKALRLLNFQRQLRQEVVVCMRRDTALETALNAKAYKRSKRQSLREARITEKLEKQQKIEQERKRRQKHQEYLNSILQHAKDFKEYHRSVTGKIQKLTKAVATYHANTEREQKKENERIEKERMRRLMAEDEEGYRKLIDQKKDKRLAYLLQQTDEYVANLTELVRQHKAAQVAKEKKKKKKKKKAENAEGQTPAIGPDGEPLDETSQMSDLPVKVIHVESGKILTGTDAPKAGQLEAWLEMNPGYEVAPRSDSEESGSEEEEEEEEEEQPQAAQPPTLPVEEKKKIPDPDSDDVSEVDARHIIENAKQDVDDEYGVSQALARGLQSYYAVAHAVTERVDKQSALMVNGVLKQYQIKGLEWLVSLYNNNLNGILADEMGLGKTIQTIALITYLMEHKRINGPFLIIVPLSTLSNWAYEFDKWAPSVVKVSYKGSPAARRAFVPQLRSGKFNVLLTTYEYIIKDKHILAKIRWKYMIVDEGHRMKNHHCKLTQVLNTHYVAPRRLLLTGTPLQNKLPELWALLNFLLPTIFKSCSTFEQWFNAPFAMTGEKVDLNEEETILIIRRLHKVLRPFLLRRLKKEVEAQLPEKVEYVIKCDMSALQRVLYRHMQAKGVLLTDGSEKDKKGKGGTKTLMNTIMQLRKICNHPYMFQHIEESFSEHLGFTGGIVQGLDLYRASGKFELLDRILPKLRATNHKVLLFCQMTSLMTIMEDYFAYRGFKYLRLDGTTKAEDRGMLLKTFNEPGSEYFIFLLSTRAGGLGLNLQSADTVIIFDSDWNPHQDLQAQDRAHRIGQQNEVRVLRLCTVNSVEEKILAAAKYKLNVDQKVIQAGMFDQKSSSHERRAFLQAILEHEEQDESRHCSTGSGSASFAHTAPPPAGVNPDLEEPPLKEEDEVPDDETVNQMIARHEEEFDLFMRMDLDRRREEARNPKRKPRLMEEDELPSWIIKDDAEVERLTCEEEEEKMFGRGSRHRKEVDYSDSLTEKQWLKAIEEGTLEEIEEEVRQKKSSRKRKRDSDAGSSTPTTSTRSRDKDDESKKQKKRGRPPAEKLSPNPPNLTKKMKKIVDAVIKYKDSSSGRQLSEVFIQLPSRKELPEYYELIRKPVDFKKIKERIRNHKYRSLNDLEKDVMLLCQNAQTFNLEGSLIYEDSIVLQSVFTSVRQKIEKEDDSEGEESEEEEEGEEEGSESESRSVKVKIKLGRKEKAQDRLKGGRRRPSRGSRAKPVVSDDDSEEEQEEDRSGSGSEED
T1 sequence (P51531 whole entry): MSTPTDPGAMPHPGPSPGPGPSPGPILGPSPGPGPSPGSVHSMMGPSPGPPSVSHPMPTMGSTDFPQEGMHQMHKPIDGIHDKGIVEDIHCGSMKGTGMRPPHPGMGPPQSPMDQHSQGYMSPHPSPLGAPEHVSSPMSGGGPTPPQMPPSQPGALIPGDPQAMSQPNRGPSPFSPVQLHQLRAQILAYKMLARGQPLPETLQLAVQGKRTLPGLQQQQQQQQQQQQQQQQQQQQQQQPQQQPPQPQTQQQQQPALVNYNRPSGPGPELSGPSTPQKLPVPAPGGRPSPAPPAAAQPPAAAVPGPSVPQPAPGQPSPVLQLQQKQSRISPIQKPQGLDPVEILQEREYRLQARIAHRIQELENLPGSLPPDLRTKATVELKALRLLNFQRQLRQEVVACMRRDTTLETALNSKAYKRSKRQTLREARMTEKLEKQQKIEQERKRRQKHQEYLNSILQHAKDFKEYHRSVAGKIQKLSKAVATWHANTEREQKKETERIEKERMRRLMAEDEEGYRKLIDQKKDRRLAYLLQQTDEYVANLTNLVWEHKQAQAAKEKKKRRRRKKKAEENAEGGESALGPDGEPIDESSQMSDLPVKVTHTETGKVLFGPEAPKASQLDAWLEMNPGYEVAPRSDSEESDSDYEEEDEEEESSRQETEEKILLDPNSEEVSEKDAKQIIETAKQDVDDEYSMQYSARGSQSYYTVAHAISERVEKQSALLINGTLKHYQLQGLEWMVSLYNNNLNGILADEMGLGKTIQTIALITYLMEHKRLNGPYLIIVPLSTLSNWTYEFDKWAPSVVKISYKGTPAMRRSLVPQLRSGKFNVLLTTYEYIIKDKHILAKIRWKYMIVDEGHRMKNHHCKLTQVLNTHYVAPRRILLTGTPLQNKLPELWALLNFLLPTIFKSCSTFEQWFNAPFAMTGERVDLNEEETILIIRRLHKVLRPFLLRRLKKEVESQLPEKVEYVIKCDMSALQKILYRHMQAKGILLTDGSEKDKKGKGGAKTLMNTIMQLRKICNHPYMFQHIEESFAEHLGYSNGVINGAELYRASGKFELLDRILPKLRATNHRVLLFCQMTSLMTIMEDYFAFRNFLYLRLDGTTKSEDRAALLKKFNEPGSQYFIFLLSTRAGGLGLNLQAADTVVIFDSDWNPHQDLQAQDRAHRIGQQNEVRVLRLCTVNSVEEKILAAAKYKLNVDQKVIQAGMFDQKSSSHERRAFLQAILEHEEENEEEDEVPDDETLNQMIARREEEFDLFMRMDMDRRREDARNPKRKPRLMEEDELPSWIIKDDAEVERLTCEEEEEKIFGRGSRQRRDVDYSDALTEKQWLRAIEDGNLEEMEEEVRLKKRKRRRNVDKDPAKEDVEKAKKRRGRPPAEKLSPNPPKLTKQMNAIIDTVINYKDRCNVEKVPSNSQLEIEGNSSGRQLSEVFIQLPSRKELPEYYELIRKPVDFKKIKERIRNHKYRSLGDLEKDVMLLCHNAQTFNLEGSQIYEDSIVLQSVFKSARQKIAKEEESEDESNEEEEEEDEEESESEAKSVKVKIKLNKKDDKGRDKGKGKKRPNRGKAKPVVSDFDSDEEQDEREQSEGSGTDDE
Sequence of bromodomain of SMARCA2 protein (P51531 whole entry, looked up): as the sequence (P51531 whole entry) above
Sequence of bromodomain of SMARCA2 protein (P40337 whole entry, looked up): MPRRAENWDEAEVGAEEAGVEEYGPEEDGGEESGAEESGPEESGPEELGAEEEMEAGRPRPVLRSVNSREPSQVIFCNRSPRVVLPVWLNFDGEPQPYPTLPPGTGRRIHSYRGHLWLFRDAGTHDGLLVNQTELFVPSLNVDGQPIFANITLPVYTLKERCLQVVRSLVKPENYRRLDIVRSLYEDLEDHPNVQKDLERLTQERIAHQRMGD
Sequence of bromodomain of SMARCA2 protein (Q15370 whole entry partner, looked up): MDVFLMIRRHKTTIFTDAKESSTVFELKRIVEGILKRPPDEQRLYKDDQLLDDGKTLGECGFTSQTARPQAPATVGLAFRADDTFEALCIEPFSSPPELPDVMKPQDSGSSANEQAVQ
Sequence of bromodomain of SMARCA2 protein (Q15369 whole entry partner, looked up): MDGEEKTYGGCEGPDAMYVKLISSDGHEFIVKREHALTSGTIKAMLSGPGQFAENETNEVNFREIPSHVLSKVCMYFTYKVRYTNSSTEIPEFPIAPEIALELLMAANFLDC

IC50 [1]	DC50 (SMARCA2 [2])	Dmax (SMARCA2 [2])	DC50 (SMARCA4 [3])	Dmax (SMARCA4 [3])	DC50 (SMARCA2 [4])	Dmax (SMARCA2 [4])	DC50 (SMARCA4 [5])	Dmax (SMARCA4 [5])	SMILES
< 100 nM	< 100 nM	> 75%	< 100 nM	> 75%					Cc1ncsc1-c1ccc([C@H](C)NC(=O)[C@@H]2C[C@@H](O)CN2C(=O)C(c2cc(OCCN3CCC(CN4CCN5c6cc(-c7ccccc7O)nnc6NCC5C4)CC3)no2)C(C)C)cc1 (stereo in doubt) [Example 5, (2S,4R)-4-hydroxy-1-((2S)-2-(3-(2-(4-((2-(2-hydroxyphenyl)-5,6,6a,7,9,10-hexahydro-8H-pyrazino[1′,2′:4,5]pyrazino[2,3-c]pyridazin-8-yl)methyl)piperidin-1-yl)ethoxy)isoxazol-5-yl)-3-methylbutanoyl)-N-((S)-1-(4-(4-methylthiazol-5-yl)phenyl)ethyl)pyrrolidine-2-carboxamide]
< 100 nM	< 100 nM	> 75%	100 to 1000 nM	> 75%					Cc1ncsc1-c1ccc([C@H](C)NC(=O)[C@@H]2C[C@@H](O)CN2C(=O)[C@@H](NC(=O)CN2CCC(CN3CCN4c5cc(-c6ccccc6O)nnc5NCC4C3)CC2)C(C)(C)C)cc1 (stereo partly drawn) [Example 3, (2S,4R)-4-hydroxy-1-((2S)-2-(2-(4-((2-(2-hydroxyphenyl)-5,6,6a,7,9,10-hexahydro-8H-pyrazino[1′,2′:4,5]pyrazino[2,3-c]pyridazin-8-yl)methyl)piperidin-1-yl)acetamido)-3,3-dimethylbutanoyl)-N-((S)-1-(4-(4-methylthiazol-5-yl)phenyl)ethyl)pyrrolidine-2-carboxamide]
					< 100 nM	> 75%	< 100 nM	50 to 75%	Cc1ncsc1-c1ccc([C@H](C)NC(=O)[C@@H]2C[C@@H](O)CN2C(=O)[C@@H](c2cc(CCCN3CCCC(N4CCN5c6cc(-c7ccccc7O)nnc6NC[C@H]5C4)C3)no2)C(C)C)cc1 (stereo partly drawn) [Example 45, (2S,4R)-4-hydroxy-1-((2R)-2-(3-(3-(3-((S)-2-(2-hydroxyphenyl)-5,6,6a,7,9,10-hexahydro-8H-pyrazino[1′,2′:4,5]pyrazino[2,3-c]pyridazin-8-yl)piperidin-1-yl)propyl)isoxazol-5-yl)-3-methylbutanoyl)-N-((S)-1-(4-(4-methylthiazol-5-yl)phenyl)ethyl)pyrrolidine-2-carboxamide]
					< 100 nM	> 75%	100 to 1000 nM	50 to 75%	Cc1ncsc1-c1ccc([C@H](C)NC(=O)[C@@H]2C[C@@H](O)CN2C(=O)[C@@H](c2cc(O[C@@H](C)C(=O)N3CCC(N4CCN5c6cc(-c7ccccc7O)nnc6NC[C@H]5C4)CC3)no2)C(C)C)cc1 [Example 27, (2S,4R)-4-hydroxy-1-((R)-2-(3-(((S)-1-(4-((S)-2-(2-hydroxyphenyl)-5,6,6a,7,9,10-hexahydro-8H-pyrazino[1′,2′:4,5]pyrazino[2,3-c]pyridazin-8-yl)piperidin-1-yl)-1-oxopropan-2-yl)oxy)isoxazol-5-yl)-3-methylbutanoyl)N-((S)-1-(4-(4-methylthiazol-5-yl)phenyl)ethyl)pyrrolidine-2-carboxamide]
					< 100 nM	> 75%	< 100 nM	> 75%	Cc1ncsc1-c1ccc([C@H](C)NC(=O)[C@@H]2C[C@@H](O)CN2C(=O)[C@@H](c2cc(OCCN(C)C3CCC(N4CCN5c6cc(-c7ccccc7O)nnc6NC[C@H]5C4)CC3)no2)C(C)C)cc1 (stereo partly drawn) [Example 43, (2S,4R)-4-hydroxy-1-((R)-2-(3-(2-((4-((S)-2-(2-hydroxyphenyl)-5,6,6a,7,9,10-hexahydro-8H-pyrazino[1′,2′:4,5]pyrazino[2,3-c]pyridazin-8-yl)cyclohexyl)(methyl)amino)ethoxy)isoxazol-5-yl)-3-methylbutanoyl)-N-((S)-1-(4-(4-methylthiazol-5-yl)phenyl)ethyl)pyrrolidine-2-carboxamide]
					< 100 nM	> 75%	100 to 1000 nM	≤ 50%	Cc1ncsc1-c1ccc([C@H](C)NC(=O)[C@@H]2C[C@@H](O)CN2C(=O)C(c2cc(O[C@H](C)C(=O)N3CCC(N4CCN5c6cc(-c7ccccc7O)nnc6NC[C@H]5C4)C3)no2)C(C)C)cc1 (stereo partly drawn) [Example 28, (2S,4R)-4-hydroxy-1-(2-(3-(((2R)-1-(3-((S)-2-(2-hydroxyphenyl)-5,6,6a,7,9,10-hexahydro-8H-pyrazino[1′,2′:4,5]pyrazino[2,3-c]pyridazin-8-yl)pyrrolidin-1-yl)-1-oxopropan-2-yl)oxy)isoxazol-5-yl)-3-methylbutanoyl)-N-((S)-1-(4-(4-methylthiazol-5-yl)phenyl)ethyl)pyrrolidine-2-carboxamide]
